Data taken from patent publication US10800782B2, “Inhibitors of cellular metabolic processes” (Agios Pharmaceuticals, Inc., priority 2016, dated 2020).
pIC50: −log10 of the molar value.

What follows are compounds tested against T1, MAT2A (Homo sapiens, UniProt P31153) (assay: MAT2A biochemical assay (colorimetric inorganic phosphate detection, PiColorLock)). Conditions: recombinant His6-tagged MAT2A 1 μg/ml; 60 minutes preincubation at 25° C.; L-Met 80 μM, ATP 100 μM; 60 minutes reaction; read at 623 nm; read-out: MAT2A Inhibition Score.
T1 construct: His6; made in house; host or cells: SF9 insect cells
Method: In the reaction catalyzed by MAT2A enzyme, L-Met and ATP were converted to SAM, inorganic phosphate, and inorganic diphosphate. […] The concentration of malachite green phosphomolybdate produced in the detection reaction is thus directly related to the quantity of product produced by the MAT2A enzyme. Multiple commercial kits exist for this method of phosphate detection and quantification, such as PiColorLock Gold (Innova Biosciences). Typical reaction was performed in 50 μl final volume, containing buffer (Tris, pH 8.0, 50 mM KCl, 15 mM MgCl2, 300 uM EDTA, bovine serum albumin at 0.005% w/v) and 1 μg/ml MAT2A. Compounds were added in 1 μl of DMSO at the desired concentration; a typical dose response curve contained ten points with three-fold dilution between compound concentrations. […] The reaction was allowed to proceed for 60 minutes at room temperature then halted by the addition of 13 μl of PiColor Lock reagent. After a further 5 minutes of incubation at room temperature, […] of PiColor Stabilizer was added and the reactions were further incubated at 25° C. for 25 minutes. […] Recombinant MAT2A protein was expressed in SF9 insect cells and purified by metal chelate affinity chromatography, using methods well known in the art. After expression of His6-tagged MAT2A cells were disrupted by 4 passes through an M-Yl 10 Micro fluidizer (Microfluidics) set to 500 psi, and then centrifuged at 22,000 rcf for 20 min at 4° C. The supernatant was harvested and loaded at 15 cm/h on a Histrap FF 5*1 ml column (GE) which was equilibrated with 50 mM Tris, 500 mM NaCl, pH7.4. Host cell contaminants were removed by washing the column with equilibration buffer followed by equilibration buffer containing 20 mM imidazole and 60 mM imidazole to baseline. MAT2A protein was eluted by the addition of buffer containing 250 mM imidazole, dialized into 50 mM NaCl, 50 mM Tris, pH 7.4, flash frozen in liquid nitrogen, and stored at −80° C. until use.

T1 sequence (P31153 whole entry): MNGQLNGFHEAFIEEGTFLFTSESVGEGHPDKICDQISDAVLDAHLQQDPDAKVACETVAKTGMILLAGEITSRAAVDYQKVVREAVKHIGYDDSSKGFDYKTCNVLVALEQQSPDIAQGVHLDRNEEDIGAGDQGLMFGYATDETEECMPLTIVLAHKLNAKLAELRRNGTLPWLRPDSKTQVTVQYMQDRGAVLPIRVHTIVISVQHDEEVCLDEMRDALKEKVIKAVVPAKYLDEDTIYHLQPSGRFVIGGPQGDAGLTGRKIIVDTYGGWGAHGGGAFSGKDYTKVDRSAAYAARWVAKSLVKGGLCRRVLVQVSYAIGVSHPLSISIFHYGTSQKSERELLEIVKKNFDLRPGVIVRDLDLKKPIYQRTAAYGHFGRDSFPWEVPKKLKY

Row | Structure (SMILES) | pIC50
1 | COc1ccc(-c2c(Nc3ccc(Cl)nn3)[nH]c3c(-c4ccccc4)c(-c4ccccc4)nn3c2=O)cc1 [Compound 125, 5-((6-chloropyridazin-3-yl)amino)-6-(4-methoxyphenyl)-2,3-diphenylpyrazolo[1,5-a]pyrimidin-7(4H)-one] | > 7.00
2 | COc1ccc(-c2c(Nc3cnccn3)[nH]c3c(-c4ccccc4)c(-c4ccccc4)nn3c2=O)cc1 [Compound 126, 6-(4-methoxyphenyl)-2,3-diphenyl-5-(pyrazin-2-ylamino)pyrazolo[1,5-a]pyrimidin-7(4H)-one] | > 7.00
3 | COc1ccc(-c2c(Nc3nccnc3O)[nH]c3c(-c4ccccc4)c(-c4ccccc4)nn3c2=O)cc1 [Compound 127, 5-((3-hydroxypyrazin-2-yl)amino)-6-(4-methoxyphenyl)-2,3-diphenylpyrazolo[1,5-a]pyrimidin-7(4H)-one] | > 7.00
4 | COc1ccc(-c2c(Nc3nccnc3N)[nH]c3c(-c4ccccc4)c(-c4ccccc4)nn3c2=O)cc1 [Compound 128, 5-((3-aminopyrazin-2-yl)amino)-6-(4-methoxyphenyl)-2,3-diphenylpyrazolo[1,5-a]pyrimidin-7(4H)-one] | > 7.00
5 | COc1ccc(-c2c(Nc3cnc(C#N)cn3)[nH]c3c(-c4ccccc4)c(-c4ccccc4)nn3c2=O)cc1 [Compound 129, 5-(6-(4-methoxyphenyl)-7-oxo-2,3-diphenyl-4,7-dihydropyrazolo[1,5-a]pyrimidin-5-ylamino)pyrazine-2-carbonitrile] | > 7.00
6 | COc1ccc(-c2c(Nc3cnc(N)cn3)[nH]c3c(-c4ccccc4)c(-c4ccccc4)nn3c2=O)cc1 [Compound 130, 5-((5-aminopyrazin-2-yl)amino)-6-(4-methoxyphenyl)-2,3-diphenylpyrazolo[1,5-a]pyrimidin-7(4H)-one] | > 7.00
7 | COc1ccc(-c2c(Nc3cncc(C#N)n3)[nH]c3c(-c4ccccc4)c(-c4ccccc4)nn3c2=O)cc1 [Compound 131, 6-(6-(4-methoxyphenyl)-7-oxo-2,3-diphenyl-4,7-dihydropyrazolo[1,5-a]pyrimidin-5-ylamino)pyrazine-2-carbonitrile] | > 7.00
8 | COc1ccc(-c2c(Nc3ncncn3)[nH]c3c(-c4ccccc4)c(-c4ccccc4)nn3c2=O)cc1 [Compound 132, 5-((1,3,5-triazin-2-yl)amino)-6-(4-methoxyphenyl)-2,3-diphenylpyrazolo[1,5-a]pyrimidin-7(4H)-one] | > 7.00
9 | COc1ccc(-c2c(Nc3cnncn3)[nH]c3c(-c4ccccc4)c(-c4ccccc4)nn3c2=O)cc1 [Compound 133, 5-((1,2,4-triazin-5-yl)amino)-6-(4-methoxyphenyl)-2,3-diphenylpyrazolo[1,5-a]pyrimidin-7(4H)-one] | > 7.00
10 | COc1ccc(-c2c(Nc3ncnc(N)n3)[nH]c3c(-c4ccccc4)c(-c4ccccc4)nn3c2=O)cc1 [Compound 134, 5-((4-amino-1,3,5-triazin-2-yl)amino)-6-(4-methoxyphenyl)-2,3-diphenylpyrazolo[1,5-a]pyrimidin-7(4H)-one] | > 7.00
11 | CNc1ncnc(Nc2[nH]c3c(-c4ccccc4)c(-c4ccccc4)nn3c(=O)c2-c2ccc(OC)cc2)n1 [Compound 135, 6-(4-methoxyphenyl)-5-((4-(methylamino)-1,3,5-triazin-2-yl)amino)-2,3-diphenylpyrazolo[1,5-a]pyrimidin-7(4H)-one] | > 7.00
12 | COc1ccc(-c2c(Nc3ncnc(O)n3)[nH]c3c(-c4ccccc4)c(-c4ccccc4)nn3c2=O)cc1 [Compound 136, 5-((4-hydroxy-1,3,5-triazin-2-yl)amino)-6-(4-methoxyphenyl)-2,3-diphenylpyrazolo[1,5-a]pyrimidin-7(4H)-one] | > 7.00
13 | COc1ccc(-c2c(Nc3nccs3)[nH]c3c(-c4ccccc4)c(-c4ccccc4)nn3c2=O)cc1 [Compound 137, 6-(4-methoxyphenyl)-2,3-diphenyl-5-(thiazol-2-ylamino)pyrazolo[1,5-a]pyrimidin-7(4H)-one] | > 7.00
14 | COc1ccc(-c2c(Nc3ccon3)[nH]c3c(-c4ccccc4)c(-c4ccccc4)nn3c2=O)cc1 [Compound 138, 5-(isoxazol-3-ylamino)-6-(4-methoxyphenyl)-2,3-diphenylpyrazolo[1,5-a]pyrimidin-7(4H)-one] | > 7.00
15 | COc1ccc(-c2c(Nc3cnoc3)[nH]c3c(-c4ccccc4)c(-c4ccccc4)nn3c2=O)cc1 [Compound 139, 5-(isoxazol-4-ylamino)-6-(4-methoxyphenyl)-2,3-diphenylpyrazolo[1,5-a]pyrimidin-7(4H)-one] | > 7.00
16 | COc1ccc(-c2c(Nc3ccno3)[nH]c3c(-c4ccccc4)c(-c4ccccc4)nn3c2=O)cc1 [Compound 140, 5-(isoxazol-5-ylamino)-6-(4-methoxyphenyl)-2,3-diphenylpyrazolo[1,5-a]pyrimidin-7(4H)-one] | > 7.00
17 | COc1ccc(-c2c(Nc3nccn3C)[nH]c3c(-c4ccccc4)c(-c4ccccc4)nn3c2=O)cc1 [Compound 141, 6-(4-methoxyphenyl)-5-(1-methyl-1H-imidazol-2-ylamino)-2,3-diphenylpyrazolo[1,5-a]pyrimidin-7(4H)-one] | > 7.00
18 | COc1ccc(-c2c(Nc3ncc[nH]3)[nH]c3c(-c4ccccc4)c(-c4ccccc4)nn3c2=O)cc1 [Compound 142, 5-((1H-imidazol-2-yl)amino)-6-(4-methoxyphenyl)-2,3-diphenylpyrazolo[1,5-a]pyrimidin-7(4H)-one] | > 7.00
19 | COc1ccc(-c2c(NC3=NCCS3)[nH]c3c(-c4ccccc4)c(-c4ccccc4)nn3c2=O)cc1 [Compound 143, 5-((4,5-dihydrothiazol-2-yl)amino)-6-(4-methoxyphenyl)-2,3-diphenylpyrazolo[1,5-a]pyrimidin-7(4H)-one] | > 7.00
20 | COc1ccc(-c2c(Nc3nncs3)[nH]c3c(-c4ccccc4)c(-c4ccccc4)nn3c2=O)cc1 [Compound 144, 5-((1,3,4-thiadiazol-2-yl)amino)-6-(4-methoxyphenyl)-2,3-diphenylpyrazolo[1,5-a]pyrimidin-7(4H)-one] | > 7.00
21 | COc1ccc(-c2c(Nc3nnc(N)s3)[nH]c3c(-c4ccccc4)c(-c4ccccc4)nn3c2=O)cc1 [Compound 145, 5-((5-amino-1,3,4-thiadiazol-2-yl)amino)-6-(4-methoxyphenyl)-2,3-diphenylpyrazolo[1,5-a]pyrimidin-7(4H)-one] | > 7.00
22 | COc1ccc(-c2c(Nc3nnc(O)s3)[nH]c3c(-c4ccccc4)c(-c4ccccc4)nn3c2=O)cc1 [Compound 146, 5-((5-hydroxy-1,3,4-thiadiazol-2-yl)amino)-6-(4-methoxyphenyl)-2,3-diphenylpyrazolo[1,5-a]pyrimidin-7(4H)-one] | > 7.00
23 | COc1ccc(-c2c(Nc3ncns3)[nH]c3c(-c4ccccc4)c(-c4ccccc4)nn3c2=O)cc1 [Compound 147, 5-((1,2,4-thiadiazol-5-yl)amino)-6-(4-methoxyphenyl)-2,3-diphenylpyrazolo[1,5-a]pyrimidin-7(4H)-one] | > 7.00
24 | COc1ccc(-c2c(Nc3nc(OC)ns3)[nH]c3c(-c4ccccc4)c(-c4ccccc4)nn3c2=O)cc1 [Compound 148, 5-((3-methoxy-1,2,4-thiadiazol-5-yl)amino)-6-(4-methoxyphenyl)-2,3-diphenylpyrazolo[1,5-a]pyrimidin-7(4H)-one] | > 7.00
25 | COc1ccc(-c2c(Nc3nonc3N)[nH]c3c(-c4ccccc4)c(-c4ccccc4)nn3c2=O)cc1 [Compound 149, 5-((4-amino-1,2,5-oxadiazol-3-yl)amino)-6-(4-methoxyphenyl)-2,3-diphenylpyrazolo[1,5-a]pyrimidin-7(4H)-one] | > 7.00
26 | CCOC(=O)c1ncsc1Nc1[nH]c2c(-c3ccccc3)c(-c3ccccc3)nn2c(=O)c1-c1ccc(OC)cc1 [Compound 150, ethyl 5-((6-(4-methoxyphenyl)-7-oxo-2,3-diphenyl-4,7-dihydropyrazolo[1,5-a]pyrimidin-5-yl)amino)thiazole-4-carboxylate] | > 7.00
27 | COc1ccc(-c2c(Nc3ccncn3)[nH]c3c(C4=CCCCC4)c(-c4ccccc4)nn3c2=O)cc1 [Compound 155, 3-(cyclohex-1-en-1-yl)-6-(4-methoxyphenyl)-2-phenyl-5-(pyrimidin-4-ylamino)pyrazolo[1,5-a]pyrimidin-7(4H)-one] | > 7.00
28 | COc1ccc(-c2c(Nc3ccnc(OC)n3)[nH]c3c(C4=CCCCC4)c(-c4ccccc4)nn3c2=O)cc1 [Compound 156, 3-cyclohexenyl-6-(4-methoxyphenyl)-5-(2-methoxypyrimidin-4-ylamino)-2-phenyl-pyrazolo[1,5-a]pyrimidin-7(4H)-one] | > 7.00
29 | COc1ccc(-c2c(Nc3cccnn3)[nH]c3c(C4=CCCCC4)c(-c4ccccc4)nn3c2=O)cc1 [Compound 157, 3-(cyclohex-1-en-1-yl)-6-(4-methoxyphenyl)-2-phenyl-5-(pyridazin-3-ylamino)pyrazolo[1,5-a]pyrimidin-7(4H)-one] | > 7.00
